Key:
Jurkat cells = experiment: IL-2 release Jurkat assay (anti-CD3/anti-CD28 stimulation, IL-2 ELISA); type: cell-based, human; details: activation with 400 ng/mL aCD3 + 400 ng/mL aCD28, 24 hours
recombinant HPK1 protein = molecular target: T1, recombinant HPK1 protein (Homo sapiens, UniProt Q92918); experiment: Primary assay of HPK1 enzymatic activity inhibition (ADP-Glo luminescence); type: biochemical; details: recombinant HPK1, MBP substrate, 1 hour at room temperature
T1 construct: purchased Promega V6398
T1 sequence (Q92918 1-346 limits assumed): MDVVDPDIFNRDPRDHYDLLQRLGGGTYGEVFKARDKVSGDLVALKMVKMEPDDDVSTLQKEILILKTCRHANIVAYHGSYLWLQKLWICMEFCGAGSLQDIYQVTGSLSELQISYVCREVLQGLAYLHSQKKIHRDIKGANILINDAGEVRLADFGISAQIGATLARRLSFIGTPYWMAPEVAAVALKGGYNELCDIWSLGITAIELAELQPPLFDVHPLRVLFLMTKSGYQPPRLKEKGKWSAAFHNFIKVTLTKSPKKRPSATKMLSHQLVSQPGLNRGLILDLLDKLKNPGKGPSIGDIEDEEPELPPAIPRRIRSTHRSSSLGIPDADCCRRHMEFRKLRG

[1] = Table C: Jurkat, 6 μM of tested compounds, stimulated vehicle = A
[2] = Table B: Jurkat, 1.5 μM of tested compounds
[3] = Table D: Jurkat, 6 μM of tested compounds, stimulated vehicle = B
[4] = Table E: Jurkat, 1.5 μM of tested compounds

SMILES | IL-2, pg/mL stimulated (Jurkat cells; [1]) | IC50 (recombinant HPK1 protein) | IL-2, pg/mL stimulated (Jurkat cells; [2]) | IL-2, pg/mL stimulated (Jurkat cells; [3]) | IL-2, pg/mL stimulated (Jurkat cells; [4])
CCOC(=O)c1cnc(Nc2ccc(S(=O)(=O)C(C)C)cc2)nc1N[C@H](CO)c1ccccc1 [Compound 274, Ethyl 4-{[(1S)-2-hydroxy-1-phenylethyl]amino}-2-{[4-(propan-2-ylsulfonyl)phenyl]amino}pyrimidine-5-carboxylate] | B (50 pg/mL≤IL-2<100 pg/mL) | 0.2 to 0.5 µM | – | – | –
CC(C)NC(=O)c1cnc(Nc2ccc(F)c(-c3ccccc3)c2)nc1N[C@H](CO)c1ccccc1 [Compound 293, 2-[(6-fluorobiphenyl-3-yl)amino]-4-{[(1S)-2-hydroxy-1-phenylethyl]-amino}-N-(propan-2-yl)pyrimidine-5-carboxamide] | – | 0.2 to 0.5 µM | D (35.0 pg/mL≤IL-2) | – | –
CCOC(=O)c1cnc(Nc2ccc(S(C)(=O)=O)c(OC)c2)nc1N[C@H](CO)c1ccccc1 [Compound 300, Ethyl 4-{[(1S)-2-hydroxy-1-phenylethyl]amino}-2-{[3-methoxy-4-(methylsulfonyl)phenyl]amino}pyrimidine-5-carboxylate] | A (IL-2<50 pg/mL) | 0.05 to 0.2 µM | – | – | –
CC(C)NC(=O)c1cnc(Nc2ccc(S(C)(=O)=O)c(F)c2)nc1N[C@H](CO)c1ccccc1 [Compound 301, 2-{[3-fluoro-4-(methylsulfonyl)phenyl]amino}-4-{[(1S)-2-hydroxy-1-phenylethyl]amino}-N-(propan-2-yl)pyrimidine-5-carboxamide] | – | 0.2 to 0.5 µM | A (IL-2<5.0 pg/mL) | – | –
CS(=O)(=O)c1ccc(Nc2ncc(C(=O)OCCO)c(N[C@H](CO)c3ccccc3)n2)cc1F [Compound 319] | D (150 pg/mL≤IL-2) | < 0.05 µM | – | – | –
COCCNC(=O)c1cnc(Nc2ccc(S(C)(=O)=O)c(C)c2)nc1N[C@H](CO)c1ccccc1 [Compound 372, 4-[[(1S)-2-hydroxy-1-phenyl-ethyl]amino]-N-(2-methoxyethyl)-2-(3-methyl-4-methylsulfonyl-anilino)pyrimidine-5-carboxamide] | C (100 pg/mL≤IL-2<150 pg/mL) | 0.2 to 0.5 µM | – | – | –
CN1CCc2cc(Nc3ncc(C(=O)NC4CCCC4)c(N[C@H](CO)c4ccccc4)n3)ccc2C1=O [Compound 389, N-cyclopentyl-4-{[(1S)-2-hydroxy-1-phenylethyl]amino}-2-[(2-methyl-1-oxo-1,2,3,4-tetrahydroisoquinolin-6-yl)amino]pyrimidine-5-carboxamide] | – | 0.05 to 0.2 µM | C (25.0 pg/mL≤IL-2<35.0 pg/mL) | – | –
COCCNC(=O)c1cnc(Nc2ccc(S(C)(=O)=O)c(F)c2)nc1N[C@H](CO)c1ccccc1 [Compound 401, 2-(3-fluoro-4-methylsulfonyl-anilino)-4-[[(1S)-2-hydroxy-1-phenyl-ethyl]amino]-N-(2-methoxyethyl)-pyrimidine-5-carboxamide] | A (IL-2<50 pg/mL) | 0.05 to 0.2 µM | – | – | –
Cc1cc(Nc2ncc(C(=O)NC3CCCC3)c(N[C@H](CO)c3ccccc3)n2)ccc1S(C)(=O)=O [Compound 434, N-cyclopentyl-4-{[(1S)-2-hydroxy-1-phenylethyl]amino}-2-{[3-methyl-4-(methylsulfonyl)phenyl]amino}pyrimidine-5-carboxamide] | – | 0.2 to 0.5 µM | B (5.0 pg/mL≤IL-2<25.0 pg/mL) | – | –
Cc1cc(Nc2ncc(C(=O)NCC(F)(F)F)c(N[C@H](CO)c3ccccc3)n2)ccc1S(C)(=O)=O [Compound 490, 4-{[(1S)-2-hydroxy-1-phenylethyl]amino}-2-{[3-methyl-4-(methylsulfonyl)phenyl]amino}-N-(2,2,2-trifluoroethyl)pyrimidine-5-carboxamide] | – | < 0.05 µM | B (5.0 pg/mL≤IL-2<25.0 pg/mL) | – | –
O=C(NCC(F)(F)F)c1cnc(Nc2ccc(F)c(-c3ccccc3)c2)nc1N[C@H](CO)c1ccccc1 [Compound 499, 2-[(6-fluorobiphenyl-3-yl)amino]-4-{[(1S)-2-hydroxy-1-phenylethyl]-amino}-N-(2,2,2-trifluoroethyl)pyrimidine-5-carboxamide] | – | 0.2 to 0.5 µM | C (25.0 pg/mL≤IL-2<35.0 pg/mL) | – | –
CCOC(=O)c1cnc(Nc2ccc(C(N)=O)c(Cl)c2)nc1N[C@H](CO)c1ccccc1 [Compound 559, Ethyl 2-(4-carbamoyl-3-chloro-anilino)-4-[[(1S)-2-hydroxy-1-phenyl-ethyl]amino]pyrimidine-5-carboxylate] | – | < 0.05 µM | – | D (150 pg/mL≤IL-2) | –
CCOC(=O)c1cnc(Nc2ccc(C(=O)NC)c(Cl)c2)nc1N[C@H](CO)c1ccccc1 [Compound 560, Ethyl 2-[3-chloro-4-(methylcarbamoyl)anilino]-4-[[(1S)-2-hydroxy-1-phenyl-ethyl]amino]pyrimidine-5-carboxylate] | – | 0.05 to 0.2 µM | – | D (150 pg/mL≤IL-2) | –
CCOC(=O)CCCCCc1nnc(-c2cnc(Nc3ccc(S(C)(=O)=O)c(C)c3)nc2N[C@H](CO)c2ccccc2)o1 [Compound 561, Ethyl 6-[5-[4-[[(1S)-2-hydroxy-1-phenyl-ethyl]amino]-2-(3-methyl-4-methylsulfonyl-anilino)pyrimidin-5-yl]-1,3,4-oxadiazol-2-yl]hexanoate] | – | 0.05 to 0.2 µM | – | B (50 pg/mL≤IL-2<100 pg/mL) | –
CS(=O)(=O)c1cnc(Nc2ccc3c(c2)CCNC3=O)nc1N[C@H](CO)c1ccccc1 [Compound 564, 6-[[4-[[(1S)-2-hydroxy-1-phenyl-ethyl]amino]-5-methylsulfonyl-pyrimidin-2-yl]amino]-3,4-dihydro-2H-isoquinolin-1-one] | – | < 0.05 µM | B (5.0 pg/mL≤IL-2<25.0 pg/mL) | – | –
CCOC(=O)c1cnc(Nc2ccc3c(c2)CCCNC3=O)nc1N[C@H](CO)c1ccccc1 [Compound 566, ethyl 4-[[(1S)-2-hydroxy-1-phenyl-ethyl]amino]-2-[(1-oxo-2,3,4,5-tetrahydro-2-benzazepin-7-yl)amino]pyrimidine-5-carboxylate] | – | < 0.05 µM | – | – | D (150 pg/mL≤IL-2)
CCOC(=O)c1cnc(Nc2ccc3c(c2)CCNC3=O)nc1N[C@@H](CO)c1ccccc1 [Compound 568, ethyl 4-[[(1R)-2-hydroxy-1-phenyl-ethyl]amino]-2-[(1-oxo-3,4-dihydro-2H-isoquinolin-6-yl)amino]pyrimidine-5-carobxylate] | – | 0.05 to 0.2 µM | A (IL-2<5.0 pg/mL) | – | –
CCOC(=O)c1cnc(Nc2ccc3c(c2)CCNC3=O)nc1N[C@H](CO)c1ccc(OC)cc1 [Compound 569, ethyl 4-[[(1S)-2-hydroxy-1-(4-methoxyphenyl)ethyl]amino]-2-[(1-oxo-3,4-dihydro-2H-isoquinolin-6-yl)amino]pyrimidine-5-carboxylate] | – | < 0.05 µM | C (25.0 pg/mL≤IL-2<35.0 pg/mL) | – | –
CCOC(=O)c1cnc(Nc2ccc3c(c2)CCNC3=O)nc1N[C@H](CO)c1cccc(OC)c1 [Compound 570, ethyl 4-[[(1S)-2-hydroxy-1-(3-methoxyphenyl)ethyl]amino]-2-[(1-oxo-3,4-dihydro-2H-isoquinolin-6-yl)amino]pyrimidine-5-carboxylate] | – | < 0.05 µM | B (5.0 pg/mL≤IL-2<25.0 pg/mL) | – | –
CCOC(=O)c1cnc(Nc2ccc3c(c2)CCCS3(=O)=O)nc1N[C@H](CO)c1ccccc1 [Compound 573, ethyl 2-[(1,1-dioxo-3,4-dihydro-2H-thiochromen-6-yl)amino]-4-[[(1S)-2-hydroxy-1-phenyl-ethyl]amino]pyrimidine-5-carboxylate] | – | < 0.05 µM | – | – | C (100 pg/mL≤IL-2<150 pg/mL)

Source: patent US20240270699A1, “COMPOUNDS HAVING N-ARYLPYRIMIDIN-2-AMINE DERIVATIVES AS THERAPEUTIC AGENTS” (Lomond Therapeutics, Inc., priority 2021, published 2024)
